Eleven molecules from patent US4623657A, “Spiro [benzofuran-2(3H),1'-cycloheptane]s and their therapeutic use” (Hoechst-Roussel Pharmaceuticals Inc., priority 1985, dated 1986) can be followed below.

Experiment [1] can be described thus: Inhibition of tetrabenazine-induced ptosis (antidepressant activity). The experiment is classed as in vivo, mice. Conditions: Mus musculus, ip, 0.5 h; i.p.; tetrabenazine 40 mg/kg i.p. 30 minutes after. As to the method:
Compounds I of the present invention are useful as antidepressant agents due to their ability to prevent tetrabenazine induced ptosis in mice. The method used is as follows.
Male mice weighing 20 to 30 grams are used in test groups of five subjects. All compounds are dissolved, or suspended with one drop of a non-ionic surfactant in distilled water and administered in volumes of 10 ml/kg of body weight. Tetrabenazine (TBZ) solution is made from methanesulfonate salt and the concentration is adjusted to enable the administration of 40 mg/kg of base by intraperitoneal injection (i.p.).
If the test compound is administered intraperitoneally, TBZ is injected 30 minutes after administration. If the test compound is administered orally (p.o.), TBZ is injected 60 minutes after the administration. A control group received solvent and TBZ by the same route and at the same intervals as the drug groups.
Thirty and sixty minutes after TBZ injection the subjects are placed in individual plastic containers (10/1/2"×8"×6") and one minute after transfer they are scored for ptosis on the followig scale: eyes closed=4, eyes 3/4 closed=3, eyes 1/2 closed=2, eyes 1/4 closed=1, and eyes open=0. The total score for each group of five will therefore be from 0 to 20 and these scores are used as indications of drug activity.
The vehicle-control group score is used as a determinate of the validity of each test. […]

Experiment [2] is described as follows: Anticonvulsant activity, supramaximal electroshock assay (SES). To be noted: Mus musculus, ip. The experiment is classed as in vivo, mice. The method, then: Compounds I of the present invention are useful as anticonvulsant agents. […] Groups of male mice (18-30 grams) are used. Drugs are prepared using distilled water and if insoluble, a surfactant is added. Control animals receive vehicle. Drugs are routinely administered intraperitoneally. The dosage volume is 10 ml/kg.
The animal's eyes are placed across the output terminals of an A.C. shocker that delivers 206 volts rms for 300 milliseconds. Electrode paste coats the animal's eyes at the point of contact with the terminals.
Protection is expressed as normalized percent inhibition relative to vehicle control. [formula]
A time response is carried out using 6 animals per group. Animals are tested at 30, 60 and 120 minutes postdrug. Additional time periods are tested if indicated by previous tests.
When the peak activity time has been determined, a dose response is initiated, using 10 animals per group at that time period. The ED50 and 95% confidence interval are calculated by computerized probit analysis.
(In general: In the maximal electroshock model the usual endpoint is tonic extension of the hind limbs.)

A short description of experiment [3]: Analgesic activity, 2-phenyl-1,4-benzoquinone-induced writhing test. In kind it is in vivo, mice. The text has this: Compounds I of the present invention are useful as analgesic agents due to their ability to alleviate pain in mammals. […] Exptl. Biol. Med., 95, 729 (1957)].
In general terms: An intraperitoneal irritant provokes the stretching counted in writhing tests.

A short description of experiment [4]: Antihypertensive activity, spontaneous hypertensive rat, indirect tail cuff method. In kind it is in vivo. Conditions: three days, measured on third day. As to the method:
The spiro[benzofuran-2(3H),1'-cycloheptane]s of formula I of the present invention are useful as antihypertensive agents due to their ability to depress blood pressure in mammals. Antihypertensive activity is measured in the spontaneous hypertensive rat by the indirect tail cuff method described in "Methods in Pharmacology", A. Schwartz, Ed., Vol. I, Appleton-Century Crofts, New York, N. Y., 1971, p. 135. In this procedure a group of five animals are treated orally for three days with the test compound in relation to a control group of the same number. The drop in blood pressure is measured on the third day following administration. The antihypertensive activities of some of the compounds, expressed as a decrease in mean arterial blood pressure (in mm Hg), are given in Table I.

Molecules are shown by their SMILES. Structures can show the parent of a compound that is named as a salt.

Regarding `CN(C)CCO/N=C1/c2ccccc2OC12CCCCCC2` [(Z)-O-Dimethylaminoethyl-spiro[benzofuran-2(3H),1'-cycloheptan]-3-one oxime maleate], the values for the ED50 in experiment [1] and in experiment [2] were 72.5 mg/kg and 30.2 mg/kg, respectively. On to `CN(CCCC(c1ccc(F)cc1)c1ccc(F)cc1)CCCC1c2ccccc2OC12CCCCCC2` (stereo not shown) [N-[4-[Bis(4-fluorophenyl)]-butyl]-N-methyl-spiro[benzofuran-2(3H),1'-cycloheptane]-3-propanamine fumarate], for which, in experiment [3], the “% Inhibition at 20 mg/kg, s.c.” value stood at 70%. Further, the “Blood Pressure Drop” value in experiment [4] (30 mg/kg p.o.) came to 61 mm Hg.

`CN(C)CCCC1c2cc(Cl)ccc2OC12CCCCCC2.Cl` (stereo not shown) [5-Chloro-3-(3-dimethylaminopropyl)-spiro[benzofuran-2(3H),1'-cycloheptane] hydrochloride]: the “% Inhibition at 20 mg/kg, s.c.” value in experiment [3] came to 40%. For the molecule `CN(C)CCC=C1c2ccccc2OC12CCCCCC2`, in experiment [4] (50 mg/kg p.o.), the “Blood Pressure Drop” value is given as 32 mm Hg.

`CN(C)CCCC1c2ccccc2OC12CCCCCC2` (stereo not shown) [3-(3-Dimethylaminopropyl)-spiro[benzofuran-2(3H),1'-cycloheptane]hydrochloride] yielded an ED50 in experiment [2] of 30.6 mg/kg.

Regarding `CN(CCCC1c2ccccc2OC12CCCCCC2)Cc1ccccc1` (stereo not shown) [N-Methyl-N-[3-[spiro[benzofuran-2(3H),1'-cyclohept-3-yl]]propyl]benzenemethanamine maleate], the “% Inhibition at 20 mg/kg, s.c.” value in experiment [3] is listed as 54%. Molecule `CNC1=Nc2ccc(Cl)cc2C(c2ccccc2)=[N+]([O-])C1` [Chlordiazepoxide, reference compound] displayed an ED50 in experiment [2] of 8 mg/kg. In the case of `C[C@](N)(Cc1ccc(O)c(O)c1)C(=O)O` [alpha-Methyldopa, reference compound], the “Blood Pressure Drop” value in experiment [4] (50 mg/kg p.o.) stood at 40 mm Hg. On the same count and under the same terms, under `CN(CCCC1c2ccccc2OC12CCCCCC2)CCc1ccccc1.O=C(O)/C=C/C(=O)O` (stereo not shown) [N-Methyl-N-(2-phenylethyl)-spiro[benzofuran-2(3H),1'-cycloheptane]-3-propanamine fumarate] stands 76 mm Hg.

`CCC(=O)O[C@](Cc1ccccc1)(c1ccccc1)[C@H](C)CN(C)C` [Propoxyphene, reference compound] registered an ED50 in experiment [3] (Mus musculus, sc) of 3.9 mg/kg. Turning to `CC(C)NCC(O)CO/N=C1/c2ccccc2OC12CCCCCC2` (stereo not shown) [(Z)-O-[3-[(1-Methylethyl)amino]-2-hydroxypropyl]spiro[benzofuran-2(3H),1'-cycloheptan]-3-one oxime maleate], the “% Inhibition at 20 mg/kg, s.c.” value in experiment [3] is on record as 40%.

For orientation: ED50 means the dose at which the effect has come halfway, by size or by number of responders. Read a high ED50 as weaker potency. What is called % Inhibition is the share of the control response that was lost under treatment. The low end stands for little suppression, the high end for strong suppression.
